# From US20200276186A1, “USE OF […] TREATING COCAINE ADDICTION, PRURITIS, AND SEIZURE DISORDERS” (PHOENIX […], INC., priority 2017, published 2020)
# Test system: patient with atopic dermatitis
# Assay: Topical treatment of itching in atopic dermatitis
# Assay type: in vivo
# Settings: human, indomethacin cream 7.5 mg/g at 75 μg/cm^2
# Procedure: An aqueous solution (10-100 μg/ml) of a compound of Formula (I) is applied topically to the skin lesions on the arms or legs of a patient with atopic dermatitis which had caused severe itching (ranked as “+++” by the patient prior to treatment). The drug solution is applied on five spots with a volume of about 50 μl per 10 cm^2, which was equivalent to a topical dose of […]. As a control, indomethacin cream (concentration of 7.5 mg/g) applied at a dose of 75 μg/cm^2 in the same manner. Itching intensity is evaluated immediately after treatment, 5 minutes after treatment and at hourly time points for several hours following treatment. […] Itch relief typically continues for several hours following treatment.
compound,measurement,value
"COc1ccc2c(c1)c(CC(=O)O)c(C)n2C(=O)c1ccc(Cl)cc1 [indomethecin, indomethacin]",Effect on itch (control),reduces but fails to eliminate itch
